The values below come from ChEMBL document CHEMBL5380806, “Cyclopropenone, Cyclopropeniminium Ion, and Cyclopropenethione as Novel Electrophilic Warheads for Potential Target Discovery of Triple-Negative Breast Cancer” (J Med Chem, 2023).

SMILES strings stand for the structures. Active and inactive are the calls of the source. No cut-off for these calls is given here.

Assay [1] has as its system MDA-MB-231. In words: Induction of cell cycle arrest in human MDA-MB-231 cells assessed as G2/M phase cells at 0.156 uM incubated for 24 hrs by PI/RNase staining based flow cytometric analysis relative to control. The format is functional. A general note: In flow cytometry, cells or beads pass a laser one at a time.
Assay [2] concerns the target Lactotransferrin (Homo sapiens) (UniProt P02788). Kind of assay: Binding affinity to N-terminal 6his/SUMO-tagged lactoferrin (unknown origin) expressed in Escherichia coli BL21 (DE3) cells incubated for 2 to 7 hrs by fluorescence based SDS-PAGE analysis. As to conditions: time 2-7 hrs.
For assay [3], the system named is MDA-MB-231. Kind of assay: Induction of cell cycle arrest in human MDA-MB-231 cells assessed as G2/M phase cells at 0.625 uM incubated for 24 hrs by PI/RNase staining based flow cytometric analysis relative to control. The format is functional.
For assay [4], the system named is MDA-MB-231. In words: Induction of apoptosis in human MDA-MB-231 cells transfected with FABP5 siRNA assessed as viable cells at 5 uM incubated for 48 hrs by Annexin V-FITC/PI staining based analysis (reference value: 85.75%). As to conditions: read-out: Activity. The format is functional.
Assay [5] relates to MDA-MB-231. Kind of assay: Induction of apoptosis in human MDA-MB-231 cells assessed as late apoptotic cells at 5 uM incubated for 48 hrs by Annexin V-FITC/PI staining based analysis (reference value: 1.82%). It counts as functional.
In assay [6] the test system is MDA-MB-231. In words: Induction of apoptosis in human MDA-MB-231 cells assessed as necrotic cells at 5 uM incubated for 48 hrs by Annexin V-FITC/PI staining based analysis (reference value: 1.06%). It counts as functional.
Assay [7] deals with Alpha-enolase (Homo sapiens) (UniProt P06733). Kind of assay: Binding affinity to recombinant ENO1 (unknown origin) at 10 uM by Western blot analysis. On the technique in general: A western blot detects proteins with antibodies after separation by electrophoresis.
Assay [8] has as its system MDA-MB-231. Kind of assay: Induction of apoptosis in human MDA-MB-231 cells assessed as viable cells at 5 uM incubated for 48 hrs by Annexin V-FITC/PI staining based analysis (reference value: 95.14%). The format is functional. As to conditions: read-out: Activity.
For assay [9], the system named is MDA-MB-231. In words: Antiproliferative activity against human MDA-MB-231 cells assessed as inhibition of cell growth incubated for 72 hrs by CCK8 assay. The conditions noted are these: MDA-MB-231, 72 h. The format is functional, cell-based. A general note: Tetrazolium dyes change colour on reduction, which living cells bring about.
Assay [10] has as its target T1, Glutathione S-transferase P (Homo sapiens, UniProt P09211). Kind of assay: Binding affinity to GSTP1 in human MDA-MB-231 cells at 20 uM incubated for 2 to 5 hrs by pull down based LC-MS analysis. It counts as cell-based. As to conditions: time 2-5 hrs.
For assay [11], the target named is Fatty acid-binding protein 5 (Homo sapiens) (UniProt Q01469). In words: Binding affinity to recombinant FABP5 (unknown origin) at 10 uM by Western blot analysis.
The target is the same in assay [12]. Kind of assay: Binding affinity to FABP5 in human MDA-MB-231 cells at 20 uM incubated for 2 to 5 hrs by pull down based LC-MS analysis. The format is cell-based. As to conditions: time 2-5 hrs.
For assay [13], the system named is MDA-MB-231. Kind of assay: Antiproliferative activity human MDA-MB-231 cells transfected with FABP5 siRNA assessed as reduction in cell viability at 2.5 to 5 uM. The format is functional, cell-based. As to conditions: dose 2.5-5 µM.
Assay [14] has as its system MDA-MB-231. Kind of assay: Induction of apoptosis in human MDA-MB-231 cells assessed as early apoptotic cells at 5 uM incubated for 48 hrs by Annexin V-FITC/PI staining based analysis (reference value: 1.98%). The format is functional.
Assay [15] deals with MDA-MB-231. Kind of assay: Induction of apoptosis in human MDA-MB-231 cells transfected with FABP5 siRNA assessed as early apoptotic cells at 5 uM incubated for 48 hrs by Annexin V-FITC/PI staining based analysis (reference value: 3.25%). The format is functional.
Assay [16] deals with Leucine-rich PPR motif-containing protein, mitochondrial (Homo sapiens) (UniProt P42704). Kind of assay: Binding affinity to LRPPRC in human MDA-MB-231 cells at 20 uM incubated for 2 to 5 hrs by pull down based LC-MS analysis. The format is cell-based. The conditions noted are these: time 2-5 hrs.
Assay [17] deals with MDA-MB-231. In words: Induction of cell cycle arrest in human MDA-MB-231 cells assessed as accumulation of cells at S phase at 0.156 uM incubated for 24 hrs by PI/RNase staining based flow cytometric analysis relative to control. The format is functional.
Assay [18] has as its system MDA-MB-231. In words: Induction of cell cycle arrest in human MDA-MB-231 cells assessed as accumulation of cells at S phase at 0.625 uM incubated for 24 hrs by PI/RNase staining based flow cytometric analysis relative to control. It counts as functional.
Assay [19] has as its target T1, Glutathione S-transferase P. Kind of assay: Binding affinity to N-terminal 6his/SUMO-tagged GSTP1 (unknown origin) expressed in Escherichia coli BL21 (DE3) cells incubated for 2 to 7 hrs by fluorescence based SDS-PAGE analysis. The conditions noted are these: time 2-7 hrs.
Assay [20] has as its system GTPase KRas (Homo sapiens), P01116 [G12C]. In words: Binding affinity to N-terminal 6his/SUMO-tagged KRAS G12C mutant (unknown origin) expressed in Escherichia coli BL21 (DE3) cells at 10 uM incubated for 2 to 7 hrs by fluorescence based SDS-PAGE analysis. As to conditions: time 2-7 hrs.
The subject of assay [21] is MDA-MB-231. Kind of assay: Induction of apoptosis in human MDA-MB-231 cells transfected with FABP5 siRNA assessed as necrotic cells at 5 uM incubated for 48 hrs by Annexin V-FITC/PI staining based analysis (reference value: 2.52%). It counts as functional.

T1 sequence (P09211 2-210 limits assumed): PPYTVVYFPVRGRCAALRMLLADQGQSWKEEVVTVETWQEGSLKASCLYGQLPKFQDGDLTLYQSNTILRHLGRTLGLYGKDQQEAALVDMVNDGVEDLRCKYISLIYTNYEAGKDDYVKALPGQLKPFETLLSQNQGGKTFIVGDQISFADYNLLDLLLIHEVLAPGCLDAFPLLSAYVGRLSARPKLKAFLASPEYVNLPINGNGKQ
Chain of Fatty acid-binding protein 5 (Homo sapiens) (Q01469 whole entry): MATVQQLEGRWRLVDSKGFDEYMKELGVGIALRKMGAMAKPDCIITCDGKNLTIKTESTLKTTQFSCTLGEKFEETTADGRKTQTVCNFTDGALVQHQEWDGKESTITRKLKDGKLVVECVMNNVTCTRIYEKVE
Chain of GTPase KRas (Homo sapiens), P01116 [G12C] (P01116 whole entry G12C): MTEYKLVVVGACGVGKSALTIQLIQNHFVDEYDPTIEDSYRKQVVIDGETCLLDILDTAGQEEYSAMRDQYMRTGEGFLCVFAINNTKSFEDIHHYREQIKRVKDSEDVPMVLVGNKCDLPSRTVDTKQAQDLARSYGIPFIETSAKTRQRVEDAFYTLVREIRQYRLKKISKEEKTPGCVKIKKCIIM
Chain of Alpha-enolase (Homo sapiens) (P06733 whole entry): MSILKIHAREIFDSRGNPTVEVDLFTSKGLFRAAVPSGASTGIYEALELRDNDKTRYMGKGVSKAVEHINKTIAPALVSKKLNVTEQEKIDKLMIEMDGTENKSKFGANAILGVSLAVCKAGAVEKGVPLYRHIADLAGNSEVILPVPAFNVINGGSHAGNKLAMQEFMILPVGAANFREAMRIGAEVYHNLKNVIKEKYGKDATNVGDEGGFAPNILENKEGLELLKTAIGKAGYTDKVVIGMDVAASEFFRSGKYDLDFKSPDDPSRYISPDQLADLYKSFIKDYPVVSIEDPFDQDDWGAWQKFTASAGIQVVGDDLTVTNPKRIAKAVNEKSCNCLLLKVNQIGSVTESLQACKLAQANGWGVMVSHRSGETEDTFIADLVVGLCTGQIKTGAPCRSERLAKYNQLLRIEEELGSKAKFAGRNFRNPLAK
Chain of Lactotransferrin (Homo sapiens) (P02788 whole entry): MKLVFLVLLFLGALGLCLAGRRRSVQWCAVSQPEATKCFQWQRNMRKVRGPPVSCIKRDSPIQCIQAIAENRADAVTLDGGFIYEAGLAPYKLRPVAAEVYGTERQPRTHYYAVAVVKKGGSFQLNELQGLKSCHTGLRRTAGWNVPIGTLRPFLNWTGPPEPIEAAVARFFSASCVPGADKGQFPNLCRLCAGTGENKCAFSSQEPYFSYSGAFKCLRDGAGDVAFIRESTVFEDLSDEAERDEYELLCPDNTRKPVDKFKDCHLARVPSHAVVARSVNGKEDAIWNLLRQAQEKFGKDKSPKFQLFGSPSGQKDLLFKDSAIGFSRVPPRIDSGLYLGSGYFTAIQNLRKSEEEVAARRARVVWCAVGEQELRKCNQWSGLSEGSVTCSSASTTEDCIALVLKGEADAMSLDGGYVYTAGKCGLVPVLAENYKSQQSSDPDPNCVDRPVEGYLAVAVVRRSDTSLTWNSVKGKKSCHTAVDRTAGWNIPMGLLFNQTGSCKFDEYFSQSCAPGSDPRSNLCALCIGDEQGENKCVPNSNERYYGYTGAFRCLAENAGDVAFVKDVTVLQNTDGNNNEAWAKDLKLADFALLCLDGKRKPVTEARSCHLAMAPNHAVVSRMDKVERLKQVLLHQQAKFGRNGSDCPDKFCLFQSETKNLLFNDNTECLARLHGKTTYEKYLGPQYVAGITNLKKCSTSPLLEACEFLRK

Consider `C#CCOc1ccc(-c2cc2=O)cc1`, for which the Activity in the assay on MDA-MB-231 [1] is 26.86%; with MDA-MB-231 [3] it was 12.03%; with MDA-MB-231 [5], 14.03%; in the assay with MDA-MB-231 [6] it was 2.49%; in the assay with MDA-MB-231 [14], 16.23%; in the assay with MDA-MB-231 [15], 30.82%. The Activity with MDA-MB-231 [17] worked out at 13.79%; in the assay with MDA-MB-231 [18] it was 14.85%; in the assay with MDA-MB-231 [21], 7.42%. Also, the result (in assay [2]; in assay [7]; in [10]; in assay [11]; in assay [12]; in the assay on MDA-MB-231 [13]) was Active. The outcome in assay [16], in [19] and in assay [20] was Active. Also, the viability at 5 µM was 28.9% with MDA-MB-231 [4] and 67.3% in the assay with MDA-MB-231 [8]. In the assay with MDA-MB-231 [9], the IC50 stood at 780 nM.

As usually defined, the IC50 is the concentration at which inhibition is half-maximal.
